Measured values as given in patent US20250026741A1, “INHIBITORS OF THE ONCOGENIC SHP2 PHOSPHATASE AND USES THEREOF” (Sanford Burnham Prebys Medical Discovery Institute, priority 2021, published 2025).

Experiments:
SHP2cat [1] = molecular target: T1, SHP2cat (Homo sapiens (Human), UniProt Q06124); test: Jump dilution inhibition assay; format: biochemical; conditions: 10× preincubation 10 min, 10× jump-dilution
Method: Finally, we performed a jump-dilution experiment to test for irreversible inhibition of SHP2. #01 was preincubated for 10 min with SHP2cat at 10× inhibitor and protein concentrations, compared to a regular dose-response experiment, followed by a 10×jump-dilution, incubation for an additional 10 min, and addition of the DiFMUP substrate.
#01 was tested for reversibility of inhibition in a jump-dilution experiment using SHP2cat. A regular dose-response experiment (no jump-dilution) was performed in parallel. Working solutions of #01 in DMSO included 10, 3, 1, 0.3, 0.1, 0.03, 0.01, 0 mM for the jump-dilution experiment, and 1, 0.3, 0.1, 0.03, 0.01, 0.003, 0.001, 0 mM for the regular dose-response experiment. […] The enzyme reaction was started by the addition of 5 μL of DiFMUP working solution (100 μM in 50 mM Bis-Tris pH 6.0, 50 mMNaCl, 0.5 mM EDTA, and 0.01% Tween® 20), and fluorescence intensity was measured in kinetic mode (every minute for 10 min) using a Tecan Spark® Multimode Microplate Reader as described above. […] The initial rates were determined from the linear progression curves of the SHP2cat reaction. […] IC50 values were calculated from the corrected initial rates by nonlinear regression using the program GraphPad Prism (GraphPad Software, Inc., San Diego, CA) version 9.

SHP2cat [2] = molecular target: T1, SHP2cat; test: Protein thermal shift (PTS) assay; format: binding; conditions: vs vehicle (DMSO) control
Excerpt: We confirmed specific and dose-dependent binding of inhibitors to SHP2 by protein thermal shift, which monitors the thermal stability of a target protein in vitro. […] In addition, we confirmed the inhibitory activity of several furanylbenzamide inhibitors, including the top two compounds #02 and #01, in SHP2cat inhibition assays using the alternative substrate 3-O-methylfluorescein phosphate (OMFP), which features a peak fluorescence emission that is red-shifted by […] compared to DiFMUP. The Km value of OMFP for SHP2cat was determined to be 50 μM. An OMFP fluorescence intensity-based assay was used to perform inhibitor dose-response experiments and determine IC50 values.
Differential scanning fluorimetry (also known as protein thermal shift) measurements of SHP2cat were performed. #02 was spotted at different concentrations into MicroAmp®384-well real-time PCR plates (#4483285, Applied Biosystems, Waltham, MA) using an Echo 555 Liquid Handler. […] Plates were analyzed using a ViiA® 7 Real-Time PCR instrument (Applied Biosystems, Waltham, MA) and a 12 min temperature gradient with a temperature increase of 0.075° C./s. The melting temperature and thermal profiles were determined using Protein Thermal Shift™ Software v1.3 (Applied Biosystems, Waltham, MA).

[3] = tested on: patient-derived AML cells; test: Viability of AML patient-derived cells; format: cell-based, human; conditions: 10 μM, two patient samples, 2 d, 4 d, or 6 d
Excerpt: Patient-derived AML cells were obtained from Carol Burian and Dr. James Mason (Scripps MD Anderson, La Jolla, CA) under approved IRB protocol 13-6180. Peripheral blood mononuclear cells (PBMCs) were isolated by traditional Ficoll-Paque™ PLUS (17-1440-02, GE Healthcare) centrifugation according to the manufacturer's instructions, and red blood cells were lysed using RBC Lysis Buffer (Alfa Aesar, cat. #J62990). Final PBMCs were resuspended in Bambanker serum-free freezing medium (Wako Pure Chemical Industries, Ltd.) and stored frozen before cell viability was assessed as described below.
Viability of AML, esophageal carcinoma, and TF-1 cells was assessed using the ATP-depletion assay CellTiter-Glo® (Promega). Cells were harvested at 1×10^6/mL to 2×10^6 cells/mL with cell numbers determined by trypan blue using the Countess Cell counter (Thermo Scientific) and resuspended in culture media. 3K cells (in […]) were seeded in a 384-well format white, clear bottom microplate (#781098, Greiner) spotted with test compound or vehicle control (DMSO) using an Echo 555 Liquid Handler. […] Luminescence was read on a Tecan Spark® Multimode Microplate Reader and data analyzed using Graph Pad Prism software.

T1 sequence (Q06124 248-527): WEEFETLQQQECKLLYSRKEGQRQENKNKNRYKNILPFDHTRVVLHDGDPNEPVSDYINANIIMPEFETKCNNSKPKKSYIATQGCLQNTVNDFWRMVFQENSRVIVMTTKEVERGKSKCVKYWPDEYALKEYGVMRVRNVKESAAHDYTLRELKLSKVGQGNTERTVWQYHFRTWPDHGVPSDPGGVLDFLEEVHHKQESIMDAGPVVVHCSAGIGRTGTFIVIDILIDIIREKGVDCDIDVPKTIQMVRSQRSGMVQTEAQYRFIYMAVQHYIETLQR

Row | SMILES | reversibility: jump-dilution vs regular dose-response IC50 curves (SHP2cat [1]) | change of SHP2cat melting temperature (Tm) (SHP2cat [2]) | effect on growth of patient-derived AML samples [3]
1 | Nc1ccc(NC(=O)c2cc(-c3ccc(/C=C4\Sc5ccccc5C4=O)o3)ccc2O)cc1 [#01, (Z)—N-(4-Aminophenyl)-2-hydroxy-5-(5-((3-oxobenzo[b]thiophen-2(3H)-ylidene)methyl)furan-2-yl)benzamide] | IC50 curves were practically identical | – | –
2 | O=C(Nc1ccccc1)c1cc(-c2ccc(/C=C3\Sc4ccccc4C3=O)o2)ccc1O [#02, (Z)-2-hydroxy-5-(5-((3-oxobenzo[b]thiophen-2(3H)-ylidene)methyl)furan-2-yl)-N-phenylbenzamide] | – | dose-dependently increased the melting temperature | inhibited the growth of both AML patient samples
